Tested on: P12-Ichikawa
Assay: cell viability relative to DMSO control; higher = less cytotoxic
Conditions: 48 h
How it was run: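 NOMO1 or SEM cells were plated at 500 cells/well and P12-Ichikawa cells at 1000 cells/well in 1536-well plates (5 μl), after each leukemia line had been adapted for at least four passages in each medium. Pin dosing delivered library compounds in DMSO at 11 threefold concentrations, 47 μM to 0.79 nM. CellTiter-Glo One luminescence was read after 48 h at 37°C. Viability is reported as a per-plate percentage of DMSO wells, with cell-free wells as background.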

[1] = HPLM + 10% dialyzed FBS, 0.000781 µM
[2] = HPLM + 10% dialyzed FBS, 0.00234 µM
[3] = HPLM + 10% dialyzed FBS, 0.00702 µM
[4] = HPLM + 10% dialyzed FBS, 0.0211 µM
[5] = HPLM + 10% dialyzed FBS, 0.0632 µM
[6] = HPLM + 10% dialyzed FBS, 0.19 µM
[7] = HPLM + 10% dialyzed FBS, 0.569 µM
[8] = HPLM + 10% dialyzed FBS, 1.71 µM
[9] = HPLM + 10% dialyzed FBS, 5.12 µM
[10] = HPLM + 10% dialyzed FBS, 15.4 µM
[11] = HPLM + 10% dialyzed FBS, 46.1 µM
[12] = RPMI 5 mM glucose + 10% FBS, 0.000781 µM
[13] = RPMI 5 mM glucose + 10% FBS, 0.00234 µM
[14] = RPMI 5 mM glucose + 10% FBS, 0.00702 µM
[15] = RPMI 5 mM glucose + 10% FBS, 0.0211 µM
[16] = RPMI 5 mM glucose + 10% FBS, 0.0632 µM
[17] = RPMI 5 mM glucose + 10% FBS, 0.19 µM
[18] = RPMI 5 mM glucose + 10% FBS, 0.569 µM
[19] = RPMI 5 mM glucose + 10% FBS, 1.71 µM
[20] = RPMI 5 mM glucose + 10% FBS, 5.12 µM
[21] = RPMI 5 mM glucose + 10% FBS, 15.4 µM
[22] = RPMI 5 mM glucose + 10% FBS, 46.1 µM
[23] = RPMI 5 mM glucose + 10% dialyzed FBS, 0.000781 µM
[24] = RPMI 5 mM glucose + 10% dialyzed FBS, 0.00234 µM
[25] = RPMI 5 mM glucose + 10% dialyzed FBS, 0.00702 µM
[26] = RPMI 5 mM glucose + 10% dialyzed FBS, 0.0211 µM
[27] = RPMI 5 mM glucose + 10% dialyzed FBS, 0.0632 µM
[28] = RPMI 5 mM glucose + 10% dialyzed FBS, 0.19 µM
[29] = RPMI 5 mM glucose + 10% dialyzed FBS, 0.569 µM
[30] = RPMI 5 mM glucose + 10% dialyzed FBS, 1.71 µM
[31] = RPMI 5 mM glucose + 10% dialyzed FBS, 5.12 µM
[32] = RPMI 5 mM glucose + 10% dialyzed FBS, 15.4 µM
[33] = RPMI 5 mM glucose + 10% dialyzed FBS, 46.1 µM

Row | Compound | cell viability [1] | cell viability [2] | cell viability [3] | cell viability [4] | cell viability [5] | cell viability [6] | cell viability [7] | cell viability [8] | cell viability [9] | cell viability [10] | cell viability [11] | cell viability [12] | cell viability [13] | cell viability [14] | cell viability [15] | cell viability [16] | cell viability [17] | cell viability [18] | cell viability [19] | cell viability [20] | cell viability [21] | cell viability [22] | cell viability [23] | cell viability [24] | cell viability [25] | cell viability [26] | cell viability [27] | cell viability [28] | cell viability [29] | cell viability [30] | cell viability [31] | cell viability [32] | cell viability [33]
1 | CCCCn1c(=O)n(Cc2ccccc2F)c(=O)c2nc(Cc3ccc(NC(C)=O)cc3)[nH]c21 | 93.4% | 95.6% | 94.6% | 90.1% | 88.6% | 88.8% | 89.4% | 79.6% | 85.5% | 83.3% | 92.8% | 87.9% | 87.8% | 89.9% | 85% | 94.5% | 88.3% | 82.7% | 75.5% | 82.5% | 79.2% | 89.1% | 88.2% | 82.1% | 87.2% | 91.3% | 90.5% | 78.6% | 86.3% | 90.7% | 85.9% | 79.7% | 83%
2 | Cc1ccccc1N1C(=O)c2cc([S+](N)(=O)[O-])c(Cl)cc2NC1C (configuration not stated) | 134% | 121% | 119% | 132% | 125% | 125% | 109% | 120% | 119% | 103% | 110% | 122% | 121% | 131% | 129% | 137% | 134% | 130% | 124% | 109% | 98.3% | 129% | – | – | – | – | – | – | – | – | – | – | –
3 | CCc1cc(Nc2nccc(-c3c(-c4ccc(OC)c(C(=O)Nc5c(F)cccc5F)c4)nc4ccccn34)n2)c(OC)cc1N1CCC(N2CCN([S+](C)(=O)[O-])CC2)CC1 | 97.9% | 108% | 100% | 112% | 107% | 112% | 110% | 110% | 112% | 87.1% | 39.8% | 98.3% | 101% | 106% | 105% | 107% | 113% | 111% | 113% | 109% | 85.1% | 37.9% | 108% | 116% | 112% | 114% | 107% | 107% | 109% | 125% | 115% | 87.4% | 49.6%
4 | Oc1ccc2c3c1O[C@H]1c4[nH]c5c(c4C[C@@]4(O)[C@@H](C2)N(CC2CC2)CC[C@]314)C[C@@]1(O)[C@H]2Cc3ccc(O)c4c3[C@@]1(CCN2CC1CC1)[C@H]5O4 | 100% | 111% | 113% | 117% | 120% | 118% | 130% | 121% | 120% | 119% | 121% | 114% | 123% | 118% | 122% | 122% | 124% | 115% | 126% | 127% | 137% | 132% | 97.8% | 110% | 113% | 112% | 120% | 123% | 117% | 122% | 119% | 129% | 134%
5 | Nc1ccccc1NC(=O)c1ccc(CNC(=O)OCc2cccnc2)cc1 | 111% | 118% | 110% | 113% | 105% | 107% | 98.4% | 73.4% | 20% | 5.58% | 4.41% | 106% | 112% | 108% | 122% | 108% | 102% | 113% | 71.6% | 27.8% | 4.9% | 3.42% | 109% | 111% | 108% | 113% | 114% | 113% | 99.6% | 69.1% | 21.4% | 5.4% | 3.96%
6 | COc1cnc(N[S+](=O)([O-])c2ccc(N)cc2)nc1 | 107% | 118% | 113% | 119% | 122% | 125% | 134% | 126% | 117% | 90.1% | 45.1% | 101% | 109% | 109% | 117% | 118% | 118% | 126% | 130% | 117% | 102% | 59.2% | 111% | 108% | 122% | 119% | 127% | 118% | 128% | 124% | 119% | 104% | 67%
7 | CC[C@H](CC[C@@H](C)[C@H]1CC[C@H]2[C@@H]3C\C=C/4C[C@@H](O)CC[C@]4(C)[C@H]3CC[C@]12C)C(C)C | 117% | 111% | 123% | 119% | 112% | 111% | 111% | 110% | 99.4% | 103% | 75.9% | 112% | 119% | 120% | 121% | 120% | 118% | 111% | 107% | 106% | 108% | 92.2% | 110% | 118% | 110% | 107% | 108% | 110% | 109% | 103% | 103% | 105% | 93.1%
8 | COc1cccc2cc(-c3nc(C4CCC(C(=O)O)CC4)n4ncnc(N)c34)[nH]c12 (configuration not stated) | 111% | 117% | 120% | 112% | 91.3% | 98.6% | 21% | 14.3% | 13.8% | 14.2% | 24.5% | 109% | 116% | 114% | 99.9% | 89% | 91.4% | 67.8% | 18.7% | 13.8% | 13.4% | 12.6% | 115% | 123% | 112% | 119% | 89.6% | 93.3% | 70.2% | 26.5% | 23.2% | 20.1% | 22.3%
9 | CNC(=O)c1ccc(-c2cnc3ncc(Cc4ccc5ncccc5c4)n3n2)cc1F | 113% | 119% | 125% | 129% | 136% | 125% | 134% | 120% | 135% | 124% | 126% | – | – | – | – | – | – | – | – | – | – | – | – | – | – | – | – | – | – | – | – | – | –
10 | OC1=C(O)C2=C(\C=C/C(=O)O2)C=C1 | 99% | 104% | 114% | 107% | 101% | 119% | 114% | 117% | 114% | 107% | 81.1% | 109% | 115% | 118% | 110% | 99.4% | 113% | 124% | 116% | 112% | 109% | 68% | 95.1% | 109% | 104% | 104% | 101% | 97.5% | 98% | 107% | 105% | 103% | 58.3%
11 | OC[C@H]1O[C@@H](O[C@@H]2[C@@H](CO)O[C@](O)(CO)[C@H]2O)[C@H](O)[C@@H](O)[C@H]1O | 98.3% | 104% | 95.2% | 105% | 110% | 97% | 101% | 97.8% | 88.8% | 71.1% | 93.4% | 93.4% | 97.2% | 97% | 98.2% | 100% | 96.4% | 99% | 89.8% | 94.5% | 65.2% | 93.6% | 90.9% | 93% | 92.8% | 99.5% | 100% | 98.5% | 105% | 91.5% | 86% | 62.2% | 77.9%
12 | O=NN(CCCl)C(=O)NC1CCCCC1 | 102% | 106% | 107% | 96.4% | 107% | 107% | 112% | 111% | 111% | 103% | 105% | 102% | 96.5% | 97.1% | 97.3% | 116% | 113% | 104% | 97.2% | 112% | 107% | 111% | 97.4% | 105% | 105% | 102% | 113% | 108% | 105% | 110% | 105% | 103% | 113%
13 | COc1ccc(C[C@@H](C)[C@@H](C)Cc2ccc(OC)c(OC)c2)cc1OC | 92.6% | 105% | 102% | 110% | 99.4% | 102% | 97.7% | 83% | 6.15% | 5.92% | 2.61% | 97% | 103% | 98.3% | 110% | 111% | 99.7% | 92.4% | 81% | 4.82% | 4.04% | 2.42% | 95.4% | 102% | 105% | 107% | 104% | 90.6% | 93.4% | 81.9% | 6.68% | 4.98% | 2.21%
14 | C/C=C(/C)C(=O)O[C@H]1C(C)=C2[C@H]([C@@H]1OC(=O)CCCCCCC)[C@@](C)(OC(C)=O)C[C@H](OC(=O)CCC)[C@@]1(O)[C@H]2OC(=O)[C@@]1(C)O | 103% | 114% | 111% | 109% | 104% | 71% | 38.5% | 51.5% | 67% | 69.8% | 75.2% | 120% | 129% | 107% | 125% | 96.8% | 66.4% | 22.1% | 23.8% | 46% | 48.2% | 42.4% | 109% | 121% | 123% | 112% | 95.7% | 52.6% | 13.3% | 8.27% | 16.7% | 20.3% | 22.7%
15 | Cc1c(CN2CCN(C(=O)[C@H](C)O)CC2)sc2c(N3CCOCC3)nc(-c3cnc(N)nc3)nc12 | 96.6% | 99.8% | 99.1% | 103% | 94.9% | 99.8% | 75% | 69.3% | 63.8% | 60.8% | 59.8% | 95.6% | 94% | 90.7% | 86.8% | 75.1% | 79.5% | 64.4% | 52.9% | 49.4% | 46.2% | 43.5% | 93.5% | 94.8% | 97.4% | 98.5% | 81.6% | 77.8% | 63.1% | 54.5% | 41.9% | 46% | 42.6%

Source: the supplement of paper PMC11451515
